# Results as given in ChEMBL document CHEMBL1201862, “PubChem BioAssay data set” (2004).
#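 How tested: cells in 96-well plates exposed to compound for 48 hours at five concentrations. Abbreviation: GI50, concentration required for 50% inhibition of growth.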 Activity calls are given as the source filed them. Rule as the data show it: active = GI50 up to about 1.1 µM and inactive = higher.
# What was measured:
# Assay in all cases: growth of human tumour cells (NCI), 48 h
# M14 = system: M14
# SNB-75 = system: SNB-75
# A549 = system: A549
# HT-29 = system: HT-29
# IGROV-1 = system: IGROV-1
# ACHN = system: ACHN
# HCT-116 = system: HCT-116
# UACC-257 = system: UACC-257
# SR = system: SR
# HCC 2998 = system: HCC 2998
# OVCAR-5 = system: OVCAR-5
# UACC-62 = system: UACC-62
# SNB-19 = system: SNB-19
# KM12 = system: KM12
# SK-MEL-5 = system: SK-MEL-5
# NCI-H522 = system: NCI-H522
# COLO 205 = system: COLO 205
Structure (SMILES),GI50 (M14),GI50 (SNB-75),GI50 (A549),GI50 (HT-29),GI50 (IGROV-1),GI50 (ACHN),GI50 (HCT-116),GI50 (UACC-257),GI50 (SR),GI50 (HCC 2998),GI50 (OVCAR-5),GI50 (UACC-62),GI50 (SNB-19),GI50 (KM12),GI50 (SK-MEL-5),GI50 (NCI-H522),GI50 (COLO 205)
O=CC1CCCc2ccccc21 (stereo unspecified),> 100 µM (inactive),> 100 µM (inactive),> 100 µM (inactive),> 100 µM (inactive),> 100 µM (inactive),> 100 µM (inactive),> 50.1 µM (inactive),> 74.3 µM (inactive),> 100 µM (inactive),> 100 µM (inactive),> 100 µM (inactive),> 100 µM (inactive),> 100 µM (inactive),> 100 µM (inactive),> 100 µM (inactive),> 79.6 µM (inactive),> 42.7 µM (inactive)
CCCCCCCCCOC(=S)NC,21.1 µM (inactive),26.1 µM (inactive),24.8 µM (inactive),20.6 µM (inactive),24.2 µM (inactive),19.3 µM (inactive),–,–,–,19.1 µM (inactive),18.3 µM (inactive),23.2 µM (inactive),30.8 µM (inactive),25.6 µM (inactive),19.1 µM (inactive),14.7 µM (inactive),22.8 µM (inactive)
CN1C(c2ccccc2)CC(C)(O)CC1c1ccccc1 (stereo unspecified),> 100 µM (inactive),> 100 µM (inactive),> 100 µM (inactive),> 100 µM (inactive),> 100 µM (inactive),> 100 µM (inactive),> 100 µM (inactive),> 100 µM (inactive),> 100 µM (inactive),> 100 µM (inactive),> 100 µM (inactive),> 100 µM (inactive),> 100 µM (inactive),> 100 µM (inactive),> 100 µM (inactive),> 100 µM (inactive),> 100 µM (inactive)
CCCCNC(=S)OCCC(C)CCCC(C)C (stereo unspecified),> 100 µM (inactive),35.3 µM (inactive),> 100 µM (inactive),> 100 µM (inactive),> 100 µM (inactive),> 100 µM (inactive),> 100 µM (inactive),> 100 µM (inactive),> 100 µM (inactive),> 100 µM (inactive),> 100 µM (inactive),> 100 µM (inactive),> 100 µM (inactive),> 100 µM (inactive),> 100 µM (inactive),–,–
CSc1cccc(-n2c3nc(=O)n(C)c(=O)c-3nc3ccccc32)c1,2.7 µM (inactive),14.5 µM (inactive),2.65 µM (inactive),2.51 µM (inactive),13.6 µM (inactive),0.735 µM (active),7.29 µM (inactive),4.94 µM (inactive),–,4.03 µM (inactive),18 µM (inactive),1.95 µM (inactive),12.9 µM (inactive),12.9 µM (inactive),1.25 µM (inactive),14.7 µM (inactive),2.94 µM (inactive)
O=[N+]([O-])c1cccc(/C=N\NS(=O)(=O)c2ccc(Cl)cc2)c1O,90.8 µM (inactive),> 100 µM (inactive),> 100 µM (inactive),> 100 µM (inactive),49.4 µM (inactive),98.6 µM (inactive),50.4 µM (inactive),> 100 µM (inactive),18.7 µM (inactive),> 100 µM (inactive),> 100 µM (inactive),49.7 µM (inactive),> 100 µM (inactive),> 100 µM (inactive),73.1 µM (inactive),31.8 µM (inactive),69.8 µM (inactive)
Cc1cc(Cl)ccc1NC(=O)C(=O)Cc1nc2ccc(C(=O)c3ccccc3)cc2nc1O,96.6 µM (inactive),> 100 µM (inactive),75.3 µM (inactive),> 100 µM (inactive),> 100 µM (inactive),> 100 µM (inactive),> 100 µM (inactive),> 100 µM (inactive),7.4 µM (inactive),> 100 µM (inactive),–,70 µM (inactive),> 100 µM (inactive),42.5 µM (inactive),79.6 µM (inactive),39.4 µM (inactive),> 100 µM (inactive)
N=C(N)NCCCC(Nc1c2ccccc2[n+]([O-])c2ccccc12)C(=O)O (stereo unspecified),73.6 µM (inactive),34.8 µM (inactive),> 100 µM (inactive),–,> 100 µM (inactive),23.1 µM (inactive),24.9 µM (inactive),–,–,27.2 µM (inactive),56.5 µM (inactive),42.5 µM (inactive),64 µM (inactive),68.4 µM (inactive),22.6 µM (inactive),29 µM (inactive),27.3 µM (inactive)
CCN(CC)CC(=O)NC1c2ccccc2Oc2ccccc21,> 100 µM (inactive),> 100 µM (inactive),> 100 µM (inactive),> 100 µM (inactive),> 100 µM (inactive),–,> 100 µM (inactive),> 100 µM (inactive),> 100 µM (inactive),> 100 µM (inactive),> 100 µM (inactive),> 100 µM (inactive),> 100 µM (inactive),–,> 100 µM (inactive),–,> 100 µM (inactive)
O=C(c1ccccc1)[C@H]1Nc2cnccc2C2c3ccccc3CC21 (stereo partly specified),6.82 µM (inactive),16.2 µM (inactive),21.9 µM (inactive),19.4 µM (inactive),24 µM (inactive),13.8 µM (inactive),3.81 µM (inactive),13.2 µM (inactive),7.43 µM (inactive),39.4 µM (inactive),28.4 µM (inactive),16.9 µM (inactive),26.7 µM (inactive),42.1 µM (inactive),3.31 µM (inactive),2.78 µM (inactive),19.8 µM (inactive)
N#CCCN(c1ccc(/C=C2\N=C(Cc3ccccc3)OC2=O)cc1)S(=O)(=O)c1ccccc1,> 100 µM (inactive),> 100 µM (inactive),> 100 µM (inactive),> 100 µM (inactive),> 100 µM (inactive),> 100 µM (inactive),> 100 µM (inactive),> 100 µM (inactive),–,> 100 µM (inactive),> 100 µM (inactive),> 100 µM (inactive),> 100 µM (inactive),> 100 µM (inactive),> 100 µM (inactive),> 100 µM (inactive),> 100 µM (inactive)
C/C(CC(=O)Nc1cccc([N+](=O)[O-])c1)=N\NC(=O)C[n+]1ccccc1,> 100 µM (inactive),> 100 µM (inactive),> 100 µM (inactive),> 100 µM (inactive),> 100 µM (inactive),–,> 100 µM (inactive),> 100 µM (inactive),–,> 100 µM (inactive),> 100 µM (inactive),> 100 µM (inactive),–,> 100 µM (inactive),> 100 µM (inactive),> 100 µM (inactive),> 100 µM (inactive)
O=C(Nc1cc(Cl)ccc1Cl)c1cc2cccc(Br)c2oc1=O,> 100 µM (inactive),34.9 µM (inactive),> 100 µM (inactive),> 100 µM (inactive),> 100 µM (inactive),> 100 µM (inactive),> 100 µM (inactive),> 100 µM (inactive),–,–,–,> 100 µM (inactive),> 100 µM (inactive),> 100 µM (inactive),> 100 µM (inactive),> 100 µM (inactive),> 100 µM (inactive)
COc1ccc(-n2/c(=N/C(=S)N(C)C)ss/c2=N\C(=S)N(C)C)cc1,36.9 µM (inactive),22.8 µM (inactive),> 100 µM (inactive),2.26 µM (inactive),14.2 µM (inactive),> 100 µM (inactive),13 µM (inactive),> 100 µM (inactive),> 100 µM (inactive),> 100 µM (inactive),> 100 µM (inactive),4.21 µM (inactive),11.6 µM (inactive),95.7 µM (inactive),–,2.54 µM (inactive),48 µM (inactive)
CCOC(=O)C(/C(=N\NC(=O)OC)C(=O)Nc1cc(OC)ccc1OC)c1cnc2ccccc2n1 (stereo unspecified),> 100 µM (inactive),> 100 µM (inactive),> 100 µM (inactive),> 100 µM (inactive),> 100 µM (inactive),> 100 µM (inactive),> 100 µM (inactive),> 100 µM (inactive),> 100 µM (inactive),> 100 µM (inactive),–,> 100 µM (inactive),–,–,> 100 µM (inactive),> 100 µM (inactive),> 100 µM (inactive)
COC(=O)N/N=C/c1oc(-c2cccc([N+](=O)[O-])c2)c(-c2cccc([N+](=O)[O-])c2)c1[N+](=O)[O-],> 100 µM (inactive),–,> 100 µM (inactive),> 100 µM (inactive),> 100 µM (inactive),> 100 µM (inactive),> 100 µM (inactive),> 100 µM (inactive),40.7 µM (inactive),> 100 µM (inactive),> 100 µM (inactive),59.8 µM (inactive),> 100 µM (inactive),> 100 µM (inactive),> 100 µM (inactive),60.8 µM (inactive),> 100 µM (inactive)
CC(=O)Nc1ccc(/C=C/C(=O)c2sc(-c3cccnc3)nc2C)cc1,–,> 100 µM (inactive),> 100 µM (inactive),> 100 µM (inactive),> 100 µM (inactive),> 100 µM (inactive),–,> 100 µM (inactive),–,> 100 µM (inactive),> 100 µM (inactive),> 100 µM (inactive),–,> 100 µM (inactive),> 100 µM (inactive),> 100 µM (inactive),> 100 µM (inactive)
O=C(CN1CCN(c2cccc(Cl)c2)CC1)N1CCc2c([nH]c3ccccc23)C1c1cccnc1 (stereo unspecified),4.47 µM (inactive),7.62 µM (inactive),7.13 µM (inactive),4 µM (inactive),22.4 µM (inactive),8.87 µM (inactive),4.5 µM (inactive),5.41 µM (inactive),2.23 µM (inactive),5.24 µM (inactive),3.96 µM (inactive),11.3 µM (inactive),26.1 µM (inactive),4.85 µM (inactive),11.9 µM (inactive),12.2 µM (inactive),–
